Laboratory results from ChEMBL document CHEMBL3885881, “DrugMatrix”.

Organism: Rattus norvegicus
Assay: DrugMatrix - Regimen: Daily Repeat
Format: toxicity, organism-based, Sprague-Dawley
Set-up: regimen Daily Repeat, gender Male, age 6-8 weeks
Conditions: in vivo, po, route oral GAVAGE, vehicle .5 % CMC; for ABSOLUTE BASOPHIL / ABSOLUTE EOSINOPHIL / ABSOLUTE LYMPHOCYTE / ABSOLUTE MONOCYTE / ABSOLUTE SEGMENTED NEUTROPHIL / BASOPHIL / EOSINOPHIL / ERYTHROCYTE COUNT / HEMATOCRIT / HEMOGLOBIN / LEUKOCYTE COUNT / LYMPHOCYTE / MEAN CORPUSCULAR HEMOGLOBIN / MEAN CORPUSCULAR HEMOGLOBIN CONCENTRATION / MONOCYTE / NEUTROPHIL / NUCLEATED RED BLOOD CELLS / PLATELET COUNT: tissue Blood; for ALANINE AMINOTRANSFERASE / ALBUMIN / ALKALINE PHOSPHATASE / ASPARTATE AMINOTRANSFERASE / BLOOD UREA NITROGEN / CARBON DIOXIDE / CHLORIDE / CHOLESTEROL / CREATINE PHOSPHOKINASE / CREATININE / GLUCOSE / LACTATE DEHYDROGENASE / LIPASE / PHOSPHORUS / POTASSIUM / SODIUM / TOTAL BILIRUBIN / TOTAL PROTEIN / URIC ACID: tissue Plasma
[1] = 0 mg/kg, 72 h, dose level Control, time 3 day
[2] = 0 mg/kg, 120 h, dose level Control, time 5 day
[3] = 1100 mg/kg, 72 h, dose level High, time 3 day
[4] = 1100 mg/kg, 120 h, dose level High, time 5 day

Compound: C[C@H]1[C@H](NC(=O)/C(=N\OC(C)(C)C(=O)O)c2csc(N)n2)C(=O)N1S(=O)(=O)O [AZTREONAM]
- ABSOLUTE BASOPHIL [1]: 0 CELLS/uL
- ABSOLUTE EOSINOPHIL [1]: 222.83 CELLS/uL
- ABSOLUTE LYMPHOCYTE [1]: 14453 CELLS/uL
- ABSOLUTE MONOCYTE [1]: 0 CELLS/uL
- ABSOLUTE SEGMENTED NEUTROPHIL [1]: 1490.83 CELLS/uL
- BASOPHIL [1]: 0%
- EOSINOPHIL [1]: 1.33%
- ERYTHROCYTE COUNT [1]: 5.76 x10E6/uL
- HEMATOCRIT [1]: 36.52%
- HEMOGLOBIN [1]: 13.45 G/DL
- LEUKOCYTE COUNT [1]: 16.17 x10E3/uL
- LYMPHOCYTE [1]: 89.33%
- MEAN CORPUSCULAR HEMOGLOBIN [1]: 23.37 pg
- MEAN CORPUSCULAR HEMOGLOBIN CONCENTRATION [1]: 36.85 G/DL
- MONOCYTE [1]: 0%
- NEUTROPHIL [1]: 9.33%
- NUCLEATED RED BLOOD CELLS [1]: 0 /100WBC
- PLATELET COUNT [1]: 1239.5 x10E3/uL
- ALANINE AMINOTRANSFERASE [1]: 43.83 u/L
- ALBUMIN [1]: 4.27 G/DL
- ALKALINE PHOSPHATASE [1]: 398.83 u/L
- ASPARTATE AMINOTRANSFERASE [1]: 81.17 u/L
- BLOOD UREA NITROGEN [1]: 17.67 mg/dL
- CARBON DIOXIDE [1]: 27.5 mmol/L
- CHLORIDE [1]: 99.17 MEQ/L
- CHOLESTEROL [1]: 74 mg/dL
- CREATINE PHOSPHOKINASE [1]: 331.5 u/L
- CREATININE [1]: 0.2 mg/dL
- GLUCOSE [1]: 171.33 mg/dL
- LACTATE DEHYDROGENASE [1]: 241.67 u/L
- LIPASE [1]: 9.5 u/L
- PHOSPHORUS [1]: 12.25 mg/dL
- POTASSIUM [1]: 6.33 MEQ/L
- SODIUM [1]: 141.28 MEQ/L
- TOTAL BILIRUBIN [1]: 0.15 mg/dL
- TOTAL PROTEIN [1]: 5.98 G/DL
- URIC ACID [1]: 1.63 mg/dL
- ABSOLUTE BASOPHIL [2]: 0 CELLS/uL
- ABSOLUTE EOSINOPHIL [2]: 148.67 CELLS/uL
- ABSOLUTE LYMPHOCYTE [2]: 16020.5 CELLS/uL
- ABSOLUTE MONOCYTE [2]: 29.17 CELLS/uL
- ABSOLUTE SEGMENTED NEUTROPHIL [2]: 1468.33 CELLS/uL
- BASOPHIL [2]: 0%
- EOSINOPHIL [2]: 1%
- ERYTHROCYTE COUNT [2]: 5.78 x10E6/uL
- HEMATOCRIT [2]: 35.77%
- HEMOGLOBIN [2]: 13.4 G/DL
- LEUKOCYTE COUNT [2]: 17.67 x10E3/uL
- LYMPHOCYTE [2]: 90.5%
- MEAN CORPUSCULAR HEMOGLOBIN [2]: 23.22 pg
- MEAN CORPUSCULAR HEMOGLOBIN CONCENTRATION [2]: 37.47 G/DL
- MONOCYTE [2]: 0.17%
- NEUTROPHIL [2]: 8.33%
- NUCLEATED RED BLOOD CELLS [2]: 0.17 /100WBC
- PLATELET COUNT [2]: 1255.5 x10E3/uL
- ALANINE AMINOTRANSFERASE [2]: 46.5 u/L
- ALBUMIN [2]: 4.38 G/DL
- ALKALINE PHOSPHATASE [2]: 336 u/L
- ASPARTATE AMINOTRANSFERASE [2]: 76.5 u/L
- BLOOD UREA NITROGEN [2]: 20 mg/dL
- CARBON DIOXIDE [2]: 27.5 mmol/L
- CHLORIDE [2]: 101 MEQ/L
- CHOLESTEROL [2]: 71.33 mg/dL
- CREATINE PHOSPHOKINASE [2]: 231.83 u/L
- CREATININE [2]: 0.37 mg/dL
- GLUCOSE [2]: 168.83 mg/dL
- LACTATE DEHYDROGENASE [2]: 174 u/L
- LIPASE [2]: 8.67 u/L
- PHOSPHORUS [2]: 11.48 mg/dL
- POTASSIUM [2]: 6.82 MEQ/L
- SODIUM [2]: 143.8 MEQ/L
- TOTAL BILIRUBIN [2]: 0.2 mg/dL
- TOTAL PROTEIN [2]: 5.98 G/DL
- URIC ACID [2]: 1.83 mg/dL
- ABSOLUTE BASOPHIL [3]: 0 CELLS/uL
- ABSOLUTE EOSINOPHIL [3]: 113.67 CELLS/uL
- ABSOLUTE LYMPHOCYTE [3]: 10636 CELLS/uL
- ABSOLUTE MONOCYTE [3]: 74.67 CELLS/uL
- ABSOLUTE SEGMENTED NEUTROPHIL [3]: 842.33 CELLS/uL
- BASOPHIL [3]: 0%
- EOSINOPHIL [3]: 1%
- ERYTHROCYTE COUNT [3]: 5.33 x10E6/uL
- HEMATOCRIT [3]: 34.77%
- HEMOGLOBIN [3]: 12.97 G/DL
- LEUKOCYTE COUNT [3]: 11.67 x10E3/uL
- LYMPHOCYTE [3]: 91%
- MEAN CORPUSCULAR HEMOGLOBIN [3]: 24.4 pg
- MEAN CORPUSCULAR HEMOGLOBIN CONCENTRATION [3]: 37.3 G/DL
- MONOCYTE [3]: 0.67%
- NEUTROPHIL [3]: 7.33%
- NUCLEATED RED BLOOD CELLS [3]: 0 /100WBC
- PLATELET COUNT [3]: 1394 x10E3/uL
- ALANINE AMINOTRANSFERASE [3]: 52 u/L
- ALBUMIN [3]: 4.03 G/DL
- ALKALINE PHOSPHATASE [3]: 364.67 u/L
- ASPARTATE AMINOTRANSFERASE [3]: 79 u/L
- BLOOD UREA NITROGEN [3]: 16.33 mg/dL
- CARBON DIOXIDE [3]: 27 mmol/L
- CHLORIDE [3]: 100.33 MEQ/L
- CHOLESTEROL [3]: 72 mg/dL
- CREATINE PHOSPHOKINASE [3]: 274.33 u/L
- CREATININE [3]: 0.18 mg/dL
- GLUCOSE [3]: 167.67 mg/dL
- LACTATE DEHYDROGENASE [3]: 74.33 u/L
- LIPASE [3]: 8.67 u/L
- PHOSPHORUS [3]: 11.13 mg/dL
- POTASSIUM [3]: 5.8 MEQ/L
- SODIUM [3]: 142.4 MEQ/L
- TOTAL BILIRUBIN [3]: 0.17 mg/dL
- TOTAL PROTEIN [3]: 5.53 G/DL
- URIC ACID [3]: 1.6 mg/dL
- ABSOLUTE BASOPHIL [4]: 0 CELLS/uL
- ABSOLUTE EOSINOPHIL [4]: 309 CELLS/uL
- ABSOLUTE LYMPHOCYTE [4]: 13777 CELLS/uL
- ABSOLUTE MONOCYTE [4]: 0 CELLS/uL
- ABSOLUTE SEGMENTED NEUTROPHIL [4]: 1914 CELLS/uL
- BASOPHIL [4]: 0%
- EOSINOPHIL [4]: 1.67%
- ERYTHROCYTE COUNT [4]: 5.78 x10E6/uL
- HEMATOCRIT [4]: 35.83%
- HEMOGLOBIN [4]: 13.5 G/DL
- LEUKOCYTE COUNT [4]: 16 x10E3/uL
- LYMPHOCYTE [4]: 87%
- MEAN CORPUSCULAR HEMOGLOBIN [4]: 23.37 pg
- MEAN CORPUSCULAR HEMOGLOBIN CONCENTRATION [4]: 37.7 G/DL
- MONOCYTE [4]: 0%
- NEUTROPHIL [4]: 11.33%
- NUCLEATED RED BLOOD CELLS [4]: 0.33 /100WBC
- PLATELET COUNT [4]: 1184.33 x10E3/uL
- ALANINE AMINOTRANSFERASE [4]: 47.67 u/L
- ALBUMIN [4]: 4.5 G/DL
- ALKALINE PHOSPHATASE [4]: 346 u/L
- ASPARTATE AMINOTRANSFERASE [4]: 72 u/L
- BLOOD UREA NITROGEN [4]: 16 mg/dL
- CARBON DIOXIDE [4]: 27 mmol/L
- CHLORIDE [4]: 102.33 MEQ/L
- CHOLESTEROL [4]: 65 mg/dL
- CREATINE PHOSPHOKINASE [4]: 183.33 u/L
- CREATININE [4]: 0.2 mg/dL
- GLUCOSE [4]: 176.67 mg/dL
- LACTATE DEHYDROGENASE [4]: 90 u/L
- LIPASE [4]: 9.33 u/L
- PHOSPHORUS [4]: 11.4 mg/dL
- POTASSIUM [4]: 6.11 MEQ/L
- SODIUM [4]: 146.47 MEQ/L
- TOTAL BILIRUBIN [4]: 0.13 mg/dL
- TOTAL PROTEIN [4]: 6 G/DL
- URIC ACID [4]: 1.7 mg/dL
